The subject of this test is Escherichia coli strain ATCC25922. The test is described as follows: standard microdilution assay to determine minimum inhibitory concentrations (MICs). Type of test: cell-based. As to conditions: for MIC: Escherichia coli, ATCC25922, Escherichia coli strain ATCC25922, microdilution, read-out: E. coli ATCC25922 MIC; for E. coli ATCC25922 MIC: Escherichia coli strain ATCC25922, microdilution. In short, it runs like this:
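Broth microdilution MIC against E. coli ATCC25922, following CLSI protocols, typically in a 100 microliter final volume. Results reported as +/− relative to a 16 micrograms/ml cutoff.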
(In general: Dilution methods test growth across graded concentrations, often in twofold steps.)

As usually defined, the MIC is the smallest concentration in the dilution series that meets the test's criterion for growth inhibition.

Some results are limits rather than exact numbers.

With `NCCCNCc1ccc(-c2cn3cc(-c4ccc(C(=O)N5CCNCC5)cc4)[nH]c3nc2=O)cc1` [Compound 682, 6-{4-[(3-Amino-propylamino)-methyl]-phenyl}-2-[4-(piperazine-1-carbonyl)-phenyl]-1H-imidazo[1,2-a]pyrimidin-7-one], the MIC is below 16 µg/mL.
Turning to `N=C(N)NCCCNCc1ccc(-n2cc3cc(-c4ccc(S(=O)(=O)N(CCCn5cc(Cl)cn5)C5CCNCC5)cc4)[nH]c3nc2=O)cc1` [Compound 1003], the “E. coli ATCC25922 MIC” value is listed as “+ (a “+” indicates that the compound has an MIC value of 16 micrograms/ml or less)”.
For `N=C(N)NCCCNCc1ccc(-c2cn3cc(-c4ccc(C(=O)N5CCN(CCF)CC5)cc4)[nH]c3nc2=O)cc1` [Compound 826], the “E. coli ATCC25922 MIC” value is “− (a “−” indicates that the compound has an MIC value greater than 16 micrograms/ml)”.
Take `CC(=O)NCCCS(=O)(=O)c1ccc(-c2cc3cn(-c4ccc(C(=O)NCCCNC(=N)N)cc4)c(=O)nc3[nH]2)cc1` [Compound 1274]: the “E. coli ATCC25922 MIC” value is “− (a “−” indicates that the compound has an MIC value greater than 16 micrograms/ml)”.
Same read-out and setting: with `CN1CCN(CCCN(C2CCNCC2)S(=O)(=O)c2ccc(-c3cc4cn(-c5ccc(CNCCCNC(=N)N)cc5)c(=O)nc4[nH]3)cc2)CC1` [Compound 899] the entry was “+ (a “+” indicates that the compound has an MIC value of 16 micrograms/ml or less)”.
On to `N=C(N)NCCCNCc1ccc(-c2cn3cc(-c4ccc(S(=O)(=O)N5CCC(F)C5)cc4)[nH]c3nc2=O)cc1` (centres unmarked) [Compound 744], for which the MIC is above 16 µg/mL.
For the molecule `N=C(N)NCCCNCc1ccc(-n2cc3cc(-c4cc(Br)cc(CCCCN)c4)[nH]c3nc2=O)cc1` [Compound 2079a], the “E. coli ATCC25922 MIC” value is given as “+ (a “+” indicates that the compound has an MIC value of 16 micrograms/ml or less)”.
In the case of `CS(=O)(=O)c1ccc(-c2cn3cc(-c4ccc(CN(CCCN)CCCNC(=N)N)cc4)c(=O)nc3[nH]2)cc1` [Compound 635], the MIC was below 16 µg/mL.
Take `N=C(N)NCCCNCc1ccc(-n2cc3cc(-c4cccc(S(=O)(=O)N(CCn5cccn5)C5CCNCC5)c4)[nH]c3nc2=O)cc1` [Compound 1176]: the “E. coli ATCC25922 MIC” value is “+ (a “+” indicates that the compound has an MIC value of 16 micrograms/ml or less)”.
Regarding `NC(N)=NCCCNCc1ccc(-n2cc3cc(-c4cccc(S(=O)(=O)N(CCc5cccc([N+](=O)[O-])c5)C5CCNCC5)c4)[nH]c3nc2=O)cc1` [Compound 1185], the “E. coli ATCC25922 MIC” value is “+ (a “+” indicates that the compound has an MIC value of 16 micrograms/ml or less)”.
Regarding `N=C(N)NCCCNCc1ccc(-n2cc3cc(-c4ccc(S(=O)(=O)N(CCCC5CCCCN5)C5CCNCC5)cc4)[nH]c3nc2=O)cc1` (centres unmarked) [Compound 1019], the “E. coli ATCC25922 MIC” value was “+ (a “+” indicates that the compound has an MIC value of 16 micrograms/ml or less)”.
With `N=C(N)NCCCN(CCCN)Cc1ccc(-n2cc3cc(-c4ccc(S(=O)(=O)NC5CCNCC5)cc4)[nH]c3nc2=O)cc1` [Compound 220], the MIC is below 16 µg/mL.
Take `N=C(N)NCCCNC(=O)c1ccc(-n2cc3cc(-c4ccc(S(=O)(=O)CCCNC5CCCOC5)cc4)[nH]c3nc2=O)cc1` (centres unmarked) [Compound 1284]: the “E. coli ATCC25922 MIC” value is “− (a “−” indicates that the compound has an MIC value greater than 16 micrograms/ml)”.
Still for that read-out and setting: with `N=C(N)NCCCNCc1ccc(-n2cc3cc(-c4ccc(S(=O)(=O)N(CCCc5cc(-c6ccccc6)n[nH]5)C5CCNCC5)cc4)[nH]c3nc2=O)cc1` [Compound 1175] the entry was “+ (a “+” indicates that the compound has an MIC value of 16 micrograms/ml or less)”; with `Cc1cc([N+](=O)[O-])nn1CCCN(C1CCNCC1)S(=O)(=O)c1ccc(-c2cc3cn(-c4ccc(CNCCCNC(=N)N)cc4)c(=O)nc3[nH]2)cc1` [Compound 998], “+ (a “+” indicates that the compound has an MIC value of 16 micrograms/ml or less)”; with `N=C(N)NCCCNCc1ccc(-n2cc3cc(-c4ccc(S(=O)(=O)CCCNC5CCCNC5)cc4)[nH]c3nc2=O)cc1` (centres unmarked) [Compound 1293], “+ (a “+” indicates that the compound has an MIC value of 16 micrograms/ml or less)”.
As to `N=C(N)NCCCNCc1ccc(-n2cc3cc(-c4cccc(NCC(=O)N5CCOCC5)c4)[nH]c3nc2=O)cc1` [Compound 637], the MIC is above 16 µg/mL.
On to `N=C(N)NCCNC(=O)c1ccc(-n2cc3cc(-c4ccc(S(=O)(=O)NC5CCNCC5)cc4)[nH]c3nc2=O)cc1` [Compound 1048], for which the “E. coli ATCC25922 MIC” value is listed as “+ (a “+” indicates that the compound has an MIC value of 16 micrograms/ml or less)”.
As to `N=C(N)NCCCNCc1ccc(-n2cc3cc(-c4ccc(S(=O)(=O)N(CC5CC5c5ccncc5)C5CCNCC5)cc4)[nH]c3nc2=O)cc1` (centres unmarked) [Compound 866], the “E. coli ATCC25922 MIC” value is listed as “+ (a “+” indicates that the compound has an MIC value of 16 micrograms/ml or less)”.
Consider `CN1CCN(C(=O)c2ccc(-c3cn4cc(-c5ccc(CNCCCN)cc5)c(=O)nc4[nH]3)cc2)CC1` [Compound 699], for which the MIC is above 16 µg/mL.
On the same count and under the same terms, with `N=C(N)CCCOc1cccc(-c2cc3cn(-c4ccc(CN)cc4)c(=O)nc3[nH]2)c1` [Compound 1150] the figure was above 16 µg/mL; with `N=C(N)NCCCNCc1ccc(-c2cn3cc(-c4ccc(C(=O)N5CCC(F)(F)CC5)cc4)[nH]c3nc2=O)cc1` [Compound 704], above 16 µg/mL.
In the case of `N=C(N)NCCCCCn1cc2cc(-c3ccc(S(=O)(=O)NC4CCNCC4)cc3)oc2nc1=O` [Compound 912], the minimal inhibitory concentration (MIC) is above 16 µg/mL.
Turning to `CN(C)Cc1ccc(-n2cc3cc(-c4ccc(S(=O)(=O)N(CC5CC5)C5CCNCC5)cc4)[nH]c3nc2=O)cc1` [Compound 1001], the “E. coli ATCC25922 MIC” value is on record as “− (a “−” indicates that the compound has an MIC value greater than 16 micrograms/ml)”.
The same measure, in the same setting: the entry for `NC(N)=NCCCNCc1ccc(-n2cc3cc(-c4cccc(S(=O)(=O)N(CCn5cccc5)C5CCNCC5)c4)[nH]c3nc2=O)cc1` [Compound 1227] is “+ (a “+” indicates that the compound has an MIC value of 16 micrograms/ml or less)”.
The same measure, in the same setting: the entry for `N=C(N)NCCCNCc1ccc(-n2cc3cc(-c4ccc(S(=O)(=O)CCCNC5CCCOC5)cc4)[nH]c3nc2=O)cc1` (centres unmarked) [Compound 1275] is “+ (a “+” indicates that the compound has an MIC value of 16 micrograms/ml or less)”.
Turning to `N=C(N)NCCCNCc1ccc(-n2cc3cc(-c4ccc(S(=O)(=O)N(CC5COc6ccccc6O5)C5CCOCC5)cc4)[nH]c3nc2=O)cc1` (centres unmarked) [Compound 877], the “E. coli ATCC25922 MIC” value is recorded as “− (a “−” indicates that the compound has an MIC value greater than 16 micrograms/ml)”.
With `N=C(N)NCCCNCc1ccc(-n2cc3cc(CCN(C(=O)c4ccccc4)C4CCNCC4)[nH]c3nc2=O)cc1` [Compound 688], the minimal inhibitory concentration (MIC) was below 16 µg/mL.
On to `CN(Cc1cccc(F)c1)C(=O)c1cc(-c2cc3cn(-c4ccc(CNCCCNC(=N)N)cc4)c(=O)nc3[nH]2)cc(N2CCNCC2)c1` [Compound 957], for which the “E. coli ATCC25922 MIC” value is recorded as “+ (a “+” indicates that the compound has an MIC value of 16 micrograms/ml or less)”.
The same measure, in the same setting: the entry for `NCCCCOc1ccc(-c2cn3cc(-c4ccc(C(=O)N5CCNCC5)cc4)[nH]c3nc2=O)cc1` [Compound 847] is “− (a “−” indicates that the compound has an MIC value greater than 16 micrograms/ml)”.
Take `NC(=O)/N=C(/N)NCCNCc1ccc(-n2cc3cc(-c4ccc(C(=O)NC5CCNCC5)cc4)[nH]c3nc2=O)cc1` [Compound 229]: the minimum inhibitory concentration (MIC) is below 16 µg/mL.
With `CN(CCCOc1cccc(-c2cc3cn(-c4ccc(CNCCCNC(=N)N)cc4)c(=O)nc3[nH]2)c1)C(=O)c1ccccc1` [Compound 1204], the MIC was above 16 µg/mL.

The values above are taken from patent US9193731B2, “Antimicrobial compounds and methods of making and using the same” (Melinta Therapeutics, Inc., priority 2009, dated 2015).
